Data: patent US9615577B2, “Herbicidally active cyclic dione compounds, or derivatives therefor, substituted by a phenyl which has an alkynyl-containing substituent” (Syngenta Limited, priority 2012, dated 2017)

What was measured:
Format in all cases: in vivo
[1] = test system: Alopecurus myosuroides (ALOMY); test: Test 1A glasshouse assay for herbicidal activity, pre-emergence; conditions: 312 h, 250 g/ha, evaluated after 13 days, read-out: percentage phytotoxicity ALOMY
Summary of the method: (§1)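 Visual % phytotoxicity (0 = no damage, 100 = total damage) scored 13 d after spraying. Pots sown in standard soil; spray applied 1 d post-sowing for pre-emergence, 8 d for post-emergence. Vehicle acetone/water 50:50 + 0.5% Tween 20; glasshouse 24/16 °C, 14 h light, 65% RH, watered twice daily.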

[2] = test system: Amaranthus retroflexus (AMARE); test: as above; conditions: 312 h, 250 g/ha, evaluated after 13 days, read-out: percentage phytotoxicity AMARE
Summary of the method: as §1

[3] = test system: Echinochloa crus-galli (ECHCG); test: as above; conditions: 312 h, 250 g/ha, evaluated after 13 days, read-out: percentage phytotoxicity ECHCG
Summary of the method: as §1

[4] = test system: Setaria faberi (SETFA); test: as above; conditions: 312 h, 250 g/ha, evaluated after 13 days, read-out: percentage phytotoxicity SETFA
Summary of the method: as §1

[5] = test system: Abutilon theophasti Medik. (ABUTH); test: Test 1A glasshouse assay for herbicidal activity, post-emergence; conditions: 312 h, evaluated after 13 days, read-out: percentage phytotoxicity ABUTH
Summary of the method: as §1

[6] = test system: Glycine max (GLXMA, soybean); test: Test 1B glasshouse assay for herbicidal activity, pre-emergence; conditions: 480 h, 125 g/ha, 20 DAA, read-out: percentage phytotoxicity GLXMA
Summary of the method: (§2)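 Soybean sprayed 1 day after sowing (pre-emergence) or at about 12 days (post-emergence) with aqueous active ingredient plus 0.2% v/v X-77 adjuvant. Plants grown at 24/18 °C day/night, 16 h light, 65% humidity. Visual % phytotoxicity (100% = total damage) scored at 20 DAA pre-emergence, 15 DAA post-emergence.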

[7] = test system: Digitaria sanguinalis (DIGSA); test: as above; conditions: 480 h, 125 g/ha, 20 DAA, read-out: percentage phytotoxicity DIGSA
Summary of the method: (§3)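 Seeds sown in standard soil; sprayed after 1 day (pre-emergence) or ~12 days (post-emergence) with active ingredient from a 50 g/liter IF50 formulation diluted in 0.2% v/v X-77 aqueous adjuvant. Glasshouse at 24/18° C. day/night, 16 h light, 65% humidity; visual % phytotoxicity scored 20 DAA (pre) or 15 DAA (post).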

[8] = test system: SORVU (Sorghum bicolor (L.) Moench ssp. Bicolor, or Sorghum vulgare Pers.); test: as above; conditions: 480 h, 125 g/ha, 20 DAA, read-out: percentage phytotoxicity SORVU
Summary of the method: as §3

[9] = test system: Setaria faberi (SETFA); test: as above; conditions: 480 h, 125 g/ha, 20 DAA, read-out: percentage phytotoxicity SETFA
Summary of the method: as §3

[10] = test system: Beta vulgaris (BEAVA, sugar beet); test: Test 1B glasshouse assay for herbicidal activity, post-emergence; conditions: 360 h
Summary of the method: (§4)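 Plants grown in soil at 20/16° C day/night, 16 h light, 65% humidity; sprayed after 1 day (pre-emergence) or ~12 days (post-emergence) with formulated compound in 0.2% v/v X-77 adjuvant. Visual % phytotoxicity scored 20 DAA (pre) or 15 DAA (post).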

[11] = test system: Brassica napus (BRSNN, rape); test: as above; conditions: 360 h
Summary of the method: as §4

[12] = test system: Triticum aestivum (TRZAW, winter wheat); test: as above; conditions: 360 h
Summary of the method: as §4

[13] = test system: Glycine max (GLXMA, soybean); test: as above; conditions: 360 h
Summary of the method: as §2

[14] = test system: Alopecurus myosuroides (ALOMY); test: as above; conditions: 360 h
Summary of the method: (§5)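 Herbicidal effect is expressed as visually assessed percentage plant damage at 15 DAA (post-emergence) and 20 DAA (pre-emergence). Application used an instant formulation of 50 g/L technical material, diluted into 0.2% v/v X-77, onto plants kept at 20/16 °C day/night.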

[15] = test system: Avena fatua (AVEFA); test: as above; conditions: 360 h
Summary of the method: as §5

[16] = test system: Lolium perenne (LOLPE); test: as above; conditions: 360 h
Summary of the method: as §5

[17] = test system: Brachiaria plantaginea (BRAPL); test: as above; conditions: Urochloa plantaginea
Summary of the method: as §3

With `CC#Cc1cc(C)c(C2=C(OC(C)=O)CC(c3ccccn3)CC2=O)c(C)c1` (centres unmarked) [Compound A-15] the pest or weed control at 250 g/ha [1] was 100%, the pest or weed control at 250 g/ha [2] was 40% and the pest or weed control at 250 g/ha [3] was 100%. The pest or weed control at 250 g/ha [4] was 100%, the pest or weed control at 30 g/ha ([5]; 30 g/ha) was 20% and the pest or weed control at 250 g/ha ([5]; 250 g/ha) was 80%. It also gave a plant injury at 125 g/ha [6] of 10%, a pest or weed control at 125 g/ha [7] of 100% and a pest or weed control at 125 g/ha [8] of 80%. The pest or weed control at 125 g/ha [9] was 80%, the plant injury at 30 g/ha ([10]; 30 g/ha application rate) was 30% and the plant injury at 125 g/ha ([10]; 125 g/ha application rate) was 30%. The plant injury at 30 g/ha ([11]; 30 g/ha application rate) was 60%, the plant injury at 125 g/ha ([11]; 125 g/ha application rate) was 70% and the plant injury at 30 g/ha ([12]; 30 g/ha application rate) was 70%. For the same molecule, the plant injury at 125 g/ha ([12]; 125 g/ha application rate) was 80%, the plant injury at 30 g/ha ([13]; 30 g/ha application rate) was 20% and the plant injury at 125 g/ha ([13]; 125 g/ha application rate) was 60%. For the same molecule, the pest or weed control at 30 g/ha ([14]; 30 g/ha application rate) was 70%, the pest or weed control at 125 g/ha ([14]; 125 g/ha application rate) was 80% and the pest or weed control at 30 g/ha ([15]; 30 g/ha application rate) was 60%. It also gave a pest or weed control at 125 g/ha ([15]; 125 g/ha application rate) of 80%, a pest or weed control at 30 g/ha ([16]; 30 g/ha application rate) of 80% and a pest or weed control at 125 g/ha ([16]; 125 g/ha application rate) of 90%. It also gave a pest or weed control at 30 g/ha ([17]; 30 g/ha application rate) of 100% and a pest or weed control at 125 g/ha ([17]; 125 g/ha application rate) of 100%.
